Earlier results in patent US20210199674A1, “TREATMENT METHOD, ANALYZING DEVICE, AND SURFACE TREATING LIQUID” (ARKRAY, Inc., priority 2019, published 2021).

Details: for acid dissociation constant pKa1: first acidic proton dissociates; for acid dissociation constant pKa4: fourth acidic proton dissociates; for acid dissociation constant pKa2: second acidic proton dissociates; for acid dissociation constant pKa3: third acidic proton dissociates

| acid dissociation constant pKa1 | acid dissociation constant pKa4 | acid dissociation constant pKa2 | acid dissociation constant pKa3 | SMILES |
| --- | --- | --- | --- | --- |
| 0.9 | 9.4 | 2.0 | 6.6 | O=P(O)(O)OP(=O)(O)O [pyrophosphoric acid] |
| 1.43 | 10.96 | 3.05 | 7.35 | O=P(O)(O)CP(=O)(O)O [methylene diphosphonate] |
